Tests used:
[1] = test system: mice; assay: Sucrose preference test, measurement of depression; format: in vivo, mouse; details: FIG. 4
Procedure: FIG. 4 is a bar graph showing results from the sucrose preference test, a measurement of depression in mice. Maternal dams were administered either water (control), Fluoxetine (SSRI), or both Fluoxetine and Piboserod (SSRI+Pibo) from E1 through weaning from breastfeeding. Pups were thus exposed to aforementioned medications during gestation and breastfeeding. Once pups were weaned, at P21, they were not given any medications. The pups were evaluated at 6-8 weeks of age to rule out acute drug effects. For the sucrose preference test, mice were trained for 2 days to drink diluted sucrose and water from serological pipettes with sippers attached and testing was done on day 3. The volumes of sucrose and water consumed overnight were recorded. A reduced preference for sucrose solution over plain water represents anhedonia.
(§1) In the present invention, the serotonin-4 receptor (5-HT4R) has been identified as a critical player in SERT modulation, ENS and CNS development and GI function. […] (FIGS. 1-2). […] Administration of a 5-HT4R antagonist during neurodevelopment thus corrects the long-lasting gastrointestinal motility and behavioral defects caused by developmental exposure to SSRls.

[2] = at birth; in utero exposure; cited from earlier work
[3] = test system: mice; assay: Novelty-suppressed feeding (NSF) test, measurement of anxiety; format: in vivo, mouse; details: FIGS. 3A-3D
Procedure: FIGS. 3A-3D are a series of bar graphs showing results from the novelty-suppressed feeding (NSF) test, a measurement of anxiety. Maternal dams were administered either water (control), Fluoxetine (SSRI), or both Fluoxetine and Piboserod (SSRI+Pibo) from E1 through weaning from breastfeeding. Pups were thus exposed to aforementioned medications during gestation and breastfeeding. Once pups were weaned, at P21, they were not given any medications. The pups were evaluated at 6-8 weeks of age to rule out acute drug effects. The NSF test began with a short term food restriction of 18 hours (water was still available). After the test, mice were given food ad libitum again. The NSF test is a “conflict” test, which assesses the competing motivations of the animal to explore (forage) for food versus remain in the safety of the periphery of the arena. Mice were placed into a white box with shavings on the floor and two food pellets placed on a circle of filter paper in the center of the arena. The latency to chew the food is the measure of anxiety. Measured times included time to reach the filter paper with the food pellet on it (“time to filter”), time to touch/smell the pellet (“time to pellet”), time to bite the pellet (“time to bite”) and time to sit and eat the pellet (“time to sit and eat”). […]

[4] = test system: mice; assay: Total intestinal transit time (Rhodamine B bolus) in pups exposed during gestation and breastfeeding; format: in vivo; details: Piboserod given to mouse mothers during pregnancy and breastfeeding concomitantly with Fluoxetine; pups evaluated at 6-8 weeks; FIG. 1
Procedure: FIG. 1 is a bar graph showing total intestinal transit time (expressed as percentage of control). Maternal dams were administered either water (control), Fluoxetine (SSRI), or both Fluoxetine and Piboserod (SSRI+Pibo) from embryonic day 1 (E1) through weaning from breastfeeding. Pups were thus exposed to aforementioned medications during gestation and breastfeeding. Once pups were weaned, at postnatal day 21 (P21), they were not given any medications. Pups were then evaluated at 6-8 weeks of age to rule out acute drug effects. Total intestinal transit time was measured by administering a bolus of Rhodamine B (time 0) and calculating the amount of time until the rhodamine was found in the stool.
as §1

[5] = test system: mice; assay: Colonic transit time (glass bead expulsion) in pups exposed during gestation and breastfeeding; format: in vivo; details: Piboserod given to mouse mothers during pregnancy and breastfeeding concomitantly with Fluoxetine; pups evaluated at 6-8 weeks; FIG. 2
Procedure: FIG. 2 is a bar graph showing colonic transit time (expressed as percentage of control). Maternal dams were administered either water (control), Fluoxetine (SSRI), or both Fluoxetine and Piboserod (SSRI+Pibo) from E1 through weaning from breastfeeding. Pups were thus exposed to aforementioned medications during gestation and breastfeeding. Once pups were weaned, at P21, they were not given any medications. Pups were evaluated at 6-8 weeks of age to rule out acute drug effects. Colonic transit time was measured by inserting a 2 mm glass bead 4 cm into the rectum and calculating the time it took for bead expulsion to occur.
as §1

[6] = mice exposed to Fluoxetine in utero and during breastfeeding, evaluated at 6-8 weeks
[7] = mice exposed to Piboserod and Fluoxetine concomitantly in utero and during breastfeeding

| SMILES | levels of depression (sucrose preference test) [1, 6] | plasma Fluoxetine levels in newborns, of maternal levels [2] | levels of anxiety (novelty-suppressed feeding) [3, 6] | total intestinal transit [4] | depression behavior (sucrose preference test) [1, 7] | colonic motility [5] | anxiety behavior (novelty-suppressed feeding) [3, 7] |
| --- | --- | --- | --- | --- | --- | --- | --- |
| CNCCC(Oc1ccc(C(F)(F)F)cc1)c1ccccc1 (stereo not shown) [Fluoxetine] | increased levels | approximately 70% | increased levels | – | – | – | – |
| CCCCN1CCC(CNC(=O)c2c3n(c4ccccc24)CCCO3)CC1 [Piboserod] | – | – | – | comparable with control mice | behaviorally comparable to control mice | comparable with control mice | behaviorally comparable to control mice |
